Patent publication US6689773B2, “Uracil substituted phenyl sulfamoyl carboxamides” (BASF Aktiengesellschaft, priority 2000, dated 2004)

Experiments:
Format in all cases: in vivo
[1] = system: ABUTH, Velvetleaf, Abutilon theophrasti, Medic.; test: Postemergence herbicidal evaluation (Example 147); conditions: rating scale 0-9, two to three weeks after treatment
How it was run: (§1)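 About two-week-old seedlings were sprayed postemergence at roughly 0.016–0.032 kg/ha in 80/20 acetone/water with 1.0% methylated seed oil. After two to three weeks in the greenhouse, injury was rated visually on a 0–9 scale against controls, and repeat tests were averaged.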

[2] = system: ALOMY, Blackgrass, Alopecurus myosuroides; test: Postemergence herbicidal evaluation (Example 147); conditions: rating scale 0-9, two to three weeks after treatment
How it was run: as §1

[3] = system: AMBEL, Ragweed, Common, Ambrosia artemiisifolia, L.; test: Postemergence herbicidal evaluation (Example 147); conditions: rating scale 0-9, two to three weeks after treatment
How it was run: as §1

[4] = system: CHEAL, Lambsquarters, Chenopodium album, L. Common; test: Postemergence herbicidal evaluation (Example 147); conditions: rating scale 0-9, two to three weeks after treatment
How it was run: as §1

[5] = system: DIGSA, Crabgrass, (Hairy) L, Digitaria sanguinalis, (L)Scop; test: Postemergence herbicidal evaluation (Example 147); conditions: rating scale 0-9, two to three weeks after treatment
How it was run: as §1

[6] = system: ECHCG, Barnyardgrass, Echinochloa crusgalli, (L.)Beau; test: Postemergence herbicidal evaluation (Example 147); conditions: rating scale 0-9, two to three weeks after treatment
How it was run: as §1

[7] = system: GLXMA, Soybean, Glycine max, (L.) Merr.; test: Postemergence herbicidal evaluation (Example 147); conditions: rating scale 0-9, two to three weeks after treatment
How it was run: as §1

[8] = system: IPOHE, Morningglory, Ivyleaf, Ipomoea hederacea, (L)Jacq.; test: Postemergence herbicidal evaluation (Example 147); conditions: rating scale 0-9, two to three weeks after treatment
How it was run: as §1

[9] = system: SETVI, Green foxtail, Setaria viridis, (L.)Beau; test: Postemergence herbicidal evaluation (Example 147); conditions: rating scale 0-9, two to three weeks after treatment
How it was run: as §1

[10] = system: TRZAW, Winter wheat, Tritium Aestivum, L. (Winter); test: Postemergence herbicidal evaluation (Example 147); conditions: rating scale 0-9, two to three weeks after treatment
How it was run: as §1

[11] = system: ZEAMX, Field corn, Zea mays L.; test: Postemergence herbicidal evaluation (Example 147); conditions: rating scale 0-9, two to three weeks after treatment
How it was run: as §1

[12] = system: ABUTH, Velvetleaf, Abutilon theophrasti, Medic.; test: Preemergence herbicidal evaluation (Example 148); conditions: rating scale 0-9, two to four weeks after treatment
How it was run: (§2)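 Following sowing, cups received a soil spray of the compound dissolved in aqueous acetone, dosed to about 0.125 to 0.250 kg per hectare. Growth continued in the greenhouse under routine care before visual scoring at two to four weeks.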

[13] = system: ALOMY, Blackgrass, Alopecurus myosuroides; test: Preemergence herbicidal evaluation (Example 148); conditions: rating scale 0-9, two to four weeks after treatment
How it was run: as §2

[14] = system: AMBEL, Ragweed, Common, Ambrosia artemiisifolia, L.; test: Preemergence herbicidal evaluation (Example 148); conditions: rating scale 0-9, two to four weeks after treatment
How it was run: as §2

[15] = system: CHEAL, Lambsquarters, Chenopodium album, L. Common; test: Preemergence herbicidal evaluation (Example 148); conditions: rating scale 0-9, two to four weeks after treatment
How it was run: as §2

[16] = system: DIGSA, Crabgrass, (Hairy) L, Digitaria sanguinalis, (L)Scop; test: Preemergence herbicidal evaluation (Example 148); conditions: rating scale 0-9, two to four weeks after treatment
How it was run: as §2

[17] = system: ECHCG, Barnyardgrass, Echinochloa crusgalli, (L.)Beau; test: Preemergence herbicidal evaluation (Example 148); conditions: rating scale 0-9, two to four weeks after treatment
How it was run: as §2

[18] = system: GLXMA, Soybean, Glycine max, (L.) Merr.; test: Preemergence herbicidal evaluation (Example 148); conditions: rating scale 0-9, two to four weeks after treatment
How it was run: as §2

[19] = system: IPOHE, Morningglory, Ivyleaf, Ipomoea hederacea, (L)Jacq.; test: Preemergence herbicidal evaluation (Example 148); conditions: rating scale 0-9, two to four weeks after treatment
How it was run: as §2

[20] = system: SETVI, Green foxtail, Setaria viridis, (L.)Beau; test: Preemergence herbicidal evaluation (Example 148); conditions: rating scale 0-9, two to four weeks after treatment
How it was run: as §2

[21] = system: TRZAW, Winter wheat, Tritium Aestivum, L. (Winter); test: Preemergence herbicidal evaluation (Example 148); conditions: rating scale 0-9, two to four weeks after treatment
How it was run: as §2

[22] = system: XANST, Cocklebur, Xanthium strumariam; test: Preemergence herbicidal evaluation (Example 148); conditions: rating scale 0-9, two to four weeks after treatment
How it was run: as §2

[23] = system: ZEAMX, Field corn, Zea mays L.; test: Preemergence herbicidal evaluation (Example 148); conditions: rating scale 0-9, two to four weeks after treatment
How it was run: as §2

## CC(C)CCNS(=O)(=O)NC(=O)c1cc(-n2c(=O)cc(C(F)(F)F)n(C)c2=O)c(F)cc1Cl [Example 72]
[1]; rate 0.016 kg/ha
  Postemergence herbicidal rating ABUTH: 9.0
[1]; rate 0.032 kg/ha
  Postemergence herbicidal rating ABUTH: 9.0
[2]; rate 0.016 kg/ha
  Postemergence herbicidal rating ALMOY: 1.0
[2]; rate 0.032 kg/ha
  Postemergence herbicidal rating ALMOY: 2.0
[3]; rate 0.016 kg/ha
  Postemergence herbicidal rating AMBEL: 9.0
[3]; rate 0.032 kg/ha
  Postemergence herbicidal rating AMBEL: 9.0
[4]; rate 0.016 kg/ha
  Postemergence herbicidal rating CHEAL: 8.0
[4]; rate 0.032 kg/ha
  Postemergence herbicidal rating CHEAL: 8.0
[5]; rate 0.016 kg/ha
  Postemergence herbicidal rating DIGSA: 4.0
[5]; rate 0.032 kg/ha
  Postemergence herbicidal rating DIGSA: 4.0
[6]; rate 0.016 kg/ha
  Postemergence herbicidal rating ECHCG: 6.0
[6]; rate 0.032 kg/ha
  Postemergence herbicidal rating ECHCG: 8.0
[7]; rate 0.016 kg/ha
  Postemergence herbicidal rating GLXMA: 8.5
[7]; rate 0.032 kg/ha
  Postemergence herbicidal rating GLXMA: 8.5
[8]; rate 0.016 kg/ha
  Postemergence herbicidal rating IPOHE: 9.0
[8]; rate 0.032 kg/ha
  Postemergence herbicidal rating IPOHE: 9.0
[9]; rate 0.016 kg/ha
  Postemergence herbicidal rating SETVI: 5.0
[9]; rate 0.032 kg/ha
  Postemergence herbicidal rating SETVI: 6.0
[10]; rate 0.016 kg/ha
  Postemergence herbicidal rating TRZAW: 5.5
[10]; rate 0.032 kg/ha
  Postemergence herbicidal rating TRZAW: 6.5
[11]; rate 0.016 kg/ha
  Postemergence herbicidal rating ZEAMX: 7.0
[11]; rate 0.032 kg/ha
  Postemergence herbicidal rating ZEAMX: 7.0
[12]; rate 0.125 kg/ha
  Preemergence herbicidal rating ABUTH: 9.0
[12]; rate 0.25 kg/ha
  Preemergence herbicidal rating ABUTH: 9.0
[13]; rate 0.125 kg/ha
  Preemergence herbicidal rating ALMOY: 1.0
[13]; rate 0.25 kg/ha
  Preemergence herbicidal rating ALMOY: 2.0
[14]; rate 0.125 kg/ha
  Preemergence herbicidal rating AMBEL: 9.0
[14]; rate 0.25 kg/ha
  Preemergence herbicidal rating AMBEL: 9.0
[15]; rate 0.125 kg/ha
  Preemergence herbicidal rating CHEAL: 9.0
[15]; rate 0.25 kg/ha
  Preemergence herbicidal rating CHEAL: 9.0
[16]; rate 0.125 kg/ha
  Preemergence herbicidal rating DIGSA: 2.0
[16]; rate 0.25 kg/ha
  Preemergence herbicidal rating DIGSA: 7.0
[17]; rate 0.125 kg/ha
  Preemergence herbicidal rating ECHCG: 7.0
[17]; rate 0.25 kg/ha
  Preemergence herbicidal rating ECHCG: 6.0
[18]; rate 0.125 kg/ha
  Preemergence herbicidal rating GLXMA: 8.0
[18]; rate 0.25 kg/ha
  Preemergence herbicidal rating GLXMA: 9.0
[19]; rate 0.125 kg/ha
  Preemergence herbicidal rating IPOHE: 9.0
[19]; rate 0.25 kg/ha
  Preemergence herbicidal rating IPOHE: 9.0
[20]; rate 0.125 kg/ha
  Preemergence herbicidal rating SETVI: 4.0
[20]; rate 0.25 kg/ha
  Preemergence herbicidal rating SETVI: 8.0
[21]; rate 0.125 kg/ha
  Preemergence herbicidal rating TRZAW: 0.0
[21]; rate 0.25 kg/ha
  Preemergence herbicidal rating TRZAW: 1.0
[22]; rate 0.125 kg/ha
  Preemergence herbicidal rating XANST: 7.0
[22]; rate 0.25 kg/ha
  Preemergence herbicidal rating XANST: 9.0
[23]; rate 0.125 kg/ha
  Preemergence herbicidal rating ZEAMX: 0.0
[23]; rate 0.25 kg/ha
  Preemergence herbicidal rating ZEAMX: 0.0

## C#CCNS(=O)(=O)NC(=O)c1cc(-n2c(=O)cc(C(F)(F)F)n(C)c2=O)c(F)cc1Cl [Example 71]
[1]; rate 0.016 kg/ha
  Postemergence herbicidal rating ABUTH: 9.0
[1]; rate 0.032 kg/ha
  Postemergence herbicidal rating ABUTH: 9.0
[2]; rate 0.016 kg/ha
  Postemergence herbicidal rating ALMOY: 1.0
[2]; rate 0.032 kg/ha
  Postemergence herbicidal rating ALMOY: 1.0
[3]; rate 0.016 kg/ha
  Postemergence herbicidal rating AMBEL: 6.0
[3]; rate 0.032 kg/ha
  Postemergence herbicidal rating AMBEL: 9.0
[4]; rate 0.016 kg/ha
  Postemergence herbicidal rating CHEAL: 5.0
[4]; rate 0.032 kg/ha
  Postemergence herbicidal rating CHEAL: 5.0
[5]; rate 0.016 kg/ha
  Postemergence herbicidal rating DIGSA: 2.0
[5]; rate 0.032 kg/ha
  Postemergence herbicidal rating DIGSA: 3.0
[6]; rate 0.016 kg/ha
  Postemergence herbicidal rating ECHCG: 2.0
[6]; rate 0.032 kg/ha
  Postemergence herbicidal rating ECHCG: 3.0
[7]; rate 0.016 kg/ha
  Postemergence herbicidal rating GLXMA: 8.0
[7]; rate 0.032 kg/ha
  Postemergence herbicidal rating GLXMA: 8.0
[8]; rate 0.016 kg/ha
  Postemergence herbicidal rating IPOHE: 8.0
[8]; rate 0.032 kg/ha
  Postemergence herbicidal rating IPOHE: 9.0
[9]; rate 0.016 kg/ha
  Postemergence herbicidal rating SETVI: 4.0
[9]; rate 0.032 kg/ha
  Postemergence herbicidal rating SETVI: 5.0
[10]; rate 0.016 kg/ha
  Postemergence herbicidal rating TRZAW: 4.5
[10]; rate 0.032 kg/ha
  Postemergence herbicidal rating TRZAW: 4.5
[11]; rate 0.016 kg/ha
  Postemergence herbicidal rating ZEAMX: 6.5
[11]; rate 0.032 kg/ha
  Postemergence herbicidal rating ZEAMX: 6.5
[12]; rate 0.125 kg/ha
  Preemergence herbicidal rating ABUTH: 9.0
[12]; rate 0.25 kg/ha
  Preemergence herbicidal rating ABUTH: 9.0
[13]; rate 0.125 kg/ha
  Preemergence herbicidal rating ALMOY: 0.0
[13]; rate 0.25 kg/ha
  Preemergence herbicidal rating ALMOY: 0.0
[14]; rate 0.125 kg/ha
  Preemergence herbicidal rating AMBEL: 8.0
[14]; rate 0.25 kg/ha
  Preemergence herbicidal rating AMBEL: 8.0
[15]; rate 0.125 kg/ha
  Preemergence herbicidal rating CHEAL: 9.0
[15]; rate 0.25 kg/ha
  Preemergence herbicidal rating CHEAL: 7.0
[16]; rate 0.125 kg/ha
  Preemergence herbicidal rating DIGSA: 0.0
[16]; rate 0.25 kg/ha
  Preemergence herbicidal rating DIGSA: 3.0
[17]; rate 0.125 kg/ha
  Preemergence herbicidal rating ECHCG: 0.0
[17]; rate 0.25 kg/ha
  Preemergence herbicidal rating ECHCG: 3.0
[18]; rate 0.125 kg/ha
  Preemergence herbicidal rating GLXMA: 0.0
[18]; rate 0.25 kg/ha
  Preemergence herbicidal rating GLXMA: 2.0
[19]; rate 0.125 kg/ha
  Preemergence herbicidal rating IPOHE: 9.0
[19]; rate 0.25 kg/ha
  Preemergence herbicidal rating IPOHE: 9.0
[20]; rate 0.125 kg/ha
  Preemergence herbicidal rating SETVI: 0.0
[20]; rate 0.25 kg/ha
  Preemergence herbicidal rating SETVI: 2.0
[21]; rate 0.125 kg/ha
  Preemergence herbicidal rating TRZAW: 0.0
[21]; rate 0.25 kg/ha
  Preemergence herbicidal rating TRZAW: 0.0
[22]; rate 0.125 kg/ha
  Preemergence herbicidal rating XANST: 0.0
[22]; rate 0.25 kg/ha
  Preemergence herbicidal rating XANST: 7.0
[23]; rate 0.125 kg/ha
  Preemergence herbicidal rating ZEAMX: 0.0
[23]; rate 0.25 kg/ha
  Preemergence herbicidal rating ZEAMX: 1.0
